Laboratory results as given in ChEMBL document CHEMBL5154654, “Design, synthesis and biological evaluation of 7-((7H-pyrrolo[2,3-d]pyrimidin-4-yl)oxy)-2,3-dihydro-1H-inden-1-one derivatives as potent FAK inhibitors for the treatment of ovarian cancer” (Eur J Med Chem, 2022).
Values after ≈ are worked out from the molar mass of the structure shown.

Columns and labels:
Focal adhesion kinase 1 = Focal adhesion kinase 1 (Homo sapiens, UniProt Q05397); assay: Inhibition of FAK (unknown origin) using Fluorescein-Poly GAT as substrate incubated for 30 mins and measured after 60 mins by Lanthascreen assay
Focal adhesion kinase 1, sequence (Q05397 whole entry): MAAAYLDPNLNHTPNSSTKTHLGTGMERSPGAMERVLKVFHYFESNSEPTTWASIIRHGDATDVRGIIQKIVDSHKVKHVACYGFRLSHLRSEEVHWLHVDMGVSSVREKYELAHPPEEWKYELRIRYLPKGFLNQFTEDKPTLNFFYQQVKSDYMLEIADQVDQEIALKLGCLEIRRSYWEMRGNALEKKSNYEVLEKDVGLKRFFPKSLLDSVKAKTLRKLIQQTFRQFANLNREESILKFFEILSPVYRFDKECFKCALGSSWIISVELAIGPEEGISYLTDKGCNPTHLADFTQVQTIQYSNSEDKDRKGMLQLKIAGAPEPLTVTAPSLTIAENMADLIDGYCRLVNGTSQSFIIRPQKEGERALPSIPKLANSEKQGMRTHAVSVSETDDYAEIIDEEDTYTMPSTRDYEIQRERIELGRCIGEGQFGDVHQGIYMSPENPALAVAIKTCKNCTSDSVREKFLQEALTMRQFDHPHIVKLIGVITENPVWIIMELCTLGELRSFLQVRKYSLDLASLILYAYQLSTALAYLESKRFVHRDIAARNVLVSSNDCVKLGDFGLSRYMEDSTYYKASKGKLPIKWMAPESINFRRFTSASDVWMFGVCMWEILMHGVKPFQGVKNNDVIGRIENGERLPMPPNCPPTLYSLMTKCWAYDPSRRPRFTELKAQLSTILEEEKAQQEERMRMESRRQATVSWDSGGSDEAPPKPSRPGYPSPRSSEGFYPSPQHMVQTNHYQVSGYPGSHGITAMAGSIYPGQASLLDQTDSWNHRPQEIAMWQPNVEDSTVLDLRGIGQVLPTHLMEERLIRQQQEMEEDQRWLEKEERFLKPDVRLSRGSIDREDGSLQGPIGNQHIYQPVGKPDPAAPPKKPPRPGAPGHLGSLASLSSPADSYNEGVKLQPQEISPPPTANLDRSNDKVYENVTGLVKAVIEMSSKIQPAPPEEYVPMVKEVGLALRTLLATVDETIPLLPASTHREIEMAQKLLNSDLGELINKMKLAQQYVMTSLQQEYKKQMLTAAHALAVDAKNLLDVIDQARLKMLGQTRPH

[1] = Metabolic stability in human liver microsomes assessed as parent compound remaining incubated for 120 mins in presence of NADPH by LC-MS/MS analysis; type: ADME, Microsome; conditions: read-out: Stability
[2] = Metabolic stability in human liver microsomes assessed as half-life incubated for 120 mins in presence of NADPH by LC-MS/MS analysis; type: ADME, Microsome
[3] = Metabolic stability in human liver microsomes assessed as intrinsic clearance incubated for 120 mins in presence of NADPH by LC-MS/MS analysis; type: ADME, Microsome; conditions: read-out: CLH
[4] = Aqueous solubility of compound; type: physicochemical; conditions: aqueous (not further specified)

| SMILES | IC50 (Focal adhesion kinase 1) [nM] | other results |
| --- | --- | --- |
| CN1CCN(c2ccc(Nc3nc(Oc4cccc5c4C(=O)CC5)c4[nH]ccc4n3)cc2)CC1 | > 1000 |  |
| COc1cc(C(=O)NC2CC2)ccc1Nc1nc(Oc2cccc3c2C(=O)CC3)c2cc[nH]c2n1 | 10.9 |  |
| COc1cc(N2CCC(N3CCN(C)CC3)CC2)ccc1Nc1nc(Oc2cccc3c2C(=O)CC3)c2ccccc2n1 | 246 |  |
| COc1cc(N2CCOCC2)ccc1Nc1nc(Oc2cccc3c2C(=O)CC3)c2cc[nH]c2n1 | 1140 |  |
| COc1cc(N2CCC(N3CCN(C)CC3)CC2)ccc1Nc1nc(-n2cnc3ccccc32)c2cc[nH]c2n1 | 27.6 |  |
| Cc1cc(Nc2nc(Oc3cccc4c3C(=O)CC4)c3cc[nH]c3n2)ccc1N1CCN(CC2CC2)CC1 | 4.2 | remaining at 2 h [1]: 15.3%; half-life [2]: < 0.5 h; CLint scaled [3]: > 29 mL/min/kg |
| Cc1ccc(Oc2nc(Nc3ccc(N4CCC(N5CCN(C)CC5)CC4)cc3)nc3[nH]ccc23)c2c1CCC2=O | 2.47 | remaining at 2 h [1]: 41.5%; solubility [4]: 38 µg/mL (≈ 68.9 µM); half-life [2]: 1.57 h; CLint scaled [3]: 93 mL/min/kg |
| O=C1CCc2cccc(Oc3nc(Nc4ccc(N5CCOCC5)cc4)nc4cc[nH]c34)c21 | > 1000 |  |
| Cc1cc(Nc2nc(Oc3cccc4c3C(=O)CC4)c3cc[nH]c3n2)n(C(C)C)n1 | 206 |  |
| COc1cc(N2CCC(N3CCN(C)CC3)CC2)ccc1Nc1nc(Oc2cccc3c2C(=O)CC3)c2[nH]ccc2n1 | > 1000 |  |
| COc1cc(N2CCOCC2)ccc1Nc1nc(Oc2cccc3c2C(=O)CC3)c2[nH]ccc2n1 | > 1000 |  |
| COc1cc(N2CCN(C)CC2)ccc1Nc1nc(Oc2cccc3c2C(=O)CC3)c2ccccc2n1 | 231 |  |
| COc1cc(N2C[C@@H](C)O[C@@H](C)C2)ccc1Nc1nc(Oc2cccc3c2C(=O)CC3)c2cc[nH]c2n1 | 11.9 |  |
| COc1cc(N2CCN(C)CC2)ccc1Nc1nc(-n2cnc3ccccc32)c2cc[nH]c2n1 | 36.8 |  |
| COc1cc(N2CCN(C)CC2)ccc1Nc1nc(Oc2cccc3c2C(=O)CC3)c2cc[nH]c2n1 | 3.86 | remaining at 2 h [1]: 62.7%; solubility [4]: 13.6 µg/mL (≈ 28.1 µM); half-life [2]: > 2 h; CLint scaled [3]: 52 mL/min/kg |
| CN1CCN(c2ccc(Nc3nc(Oc4cccc5c4C(=O)CC5)c4cc[nH]c4n3)cc2)CC1 | 10.5 |  |
| COc1cc(N2CCC(N3CCN(C)CC3)CC2)ccc1Nc1nc(-c2cnn(C)c2)c2cc[nH]c2n1 | 173 |  |
| O=C1CCc2cccc(Oc3nc(Nc4ccc(N5CCOCC5)cc4)nc4ccccc34)c21 | > 1000 |  |
| COc1cc(N2CCN(C)CC2)ccc1Nc1nc(Oc2cccc3c2C(=O)CC3)c2[nH]ccc2n1 | > 1000 |  |
| COc1cc(N2CCN(C)CC2)ccc1Nc1nc(Oc2cccc3c2C(=O)CC3)c2sccc2n1 | 41.4 |  |
| O=C1CCc2cccc(Oc3nc(Nc4ccc(N5CCOCC5)cc4)nc4ccsc34)c21 | 245 |  |
| COc1cc(N2CCN(C)CC2)ccc1Nc1nc(Oc2ccc(C)c3c2C(=O)CC3)c2cc[nH]c2n1 | 2.04 | remaining at 2 h [1]: 42.2%; solubility [4]: 7.9 µg/mL (≈ 15.8 µM); half-life [2]: 1.65 h; CLint scaled [3]: 8.8 mL/min/kg |
| COc1cc(N2CCOCC2)ccc1Nc1nc(Oc2cccc3c2C(=O)CC3)c2ccccc2n1 | 654 |  |
| CN1CCN(c2ccc(Nc3nc(Oc4cccc5c4C(=O)CC5)c4ccsc4n3)cc2)CC1 | > 1000 |  |
